{"source": "patent US12612380B2", "about": "“Non-lysosomal glucosylceramidase inhibitors and uses thereof” (ALECTOS THERAPEUTICS INC., priority 2019, dated 2026)"}
{"target": "T1, GBA2 (Homo sapiens, UniProt Q9HCG7)", "T1 sequence (Q9HCG7 1-927)": "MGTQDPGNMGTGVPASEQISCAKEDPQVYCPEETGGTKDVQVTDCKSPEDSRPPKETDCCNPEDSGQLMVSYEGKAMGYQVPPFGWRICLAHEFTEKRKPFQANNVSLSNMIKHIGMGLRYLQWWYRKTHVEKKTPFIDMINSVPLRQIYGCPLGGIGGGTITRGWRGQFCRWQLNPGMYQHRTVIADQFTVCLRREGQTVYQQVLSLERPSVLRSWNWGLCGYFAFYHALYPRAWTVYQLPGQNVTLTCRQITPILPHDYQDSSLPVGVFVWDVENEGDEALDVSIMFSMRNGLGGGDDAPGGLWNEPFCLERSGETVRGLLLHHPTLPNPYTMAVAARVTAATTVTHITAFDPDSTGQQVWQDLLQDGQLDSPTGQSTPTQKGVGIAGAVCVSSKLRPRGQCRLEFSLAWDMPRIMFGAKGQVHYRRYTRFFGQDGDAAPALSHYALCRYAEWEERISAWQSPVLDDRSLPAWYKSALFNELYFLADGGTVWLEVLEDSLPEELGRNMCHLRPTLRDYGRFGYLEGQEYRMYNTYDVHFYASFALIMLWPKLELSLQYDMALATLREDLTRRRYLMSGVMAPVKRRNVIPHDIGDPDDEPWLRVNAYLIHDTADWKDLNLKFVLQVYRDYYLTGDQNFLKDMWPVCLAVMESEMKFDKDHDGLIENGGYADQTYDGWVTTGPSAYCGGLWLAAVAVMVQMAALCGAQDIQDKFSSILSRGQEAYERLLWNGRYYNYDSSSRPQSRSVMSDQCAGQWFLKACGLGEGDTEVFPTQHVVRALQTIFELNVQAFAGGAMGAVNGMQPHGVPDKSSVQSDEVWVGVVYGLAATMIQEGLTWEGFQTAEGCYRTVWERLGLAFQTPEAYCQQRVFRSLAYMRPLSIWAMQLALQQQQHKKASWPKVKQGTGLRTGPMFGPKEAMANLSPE", "assay": "Determination of IC50 values for inhibition of GBA2 in cell lysate", "type": "biochemical", "set-up": "host or cells: HEK293T (lentiviral transduction, puromycin selection); used as cellular homogenate", "settings": "not given", "from_the_text": "(§1) Assay for Determination of IC50 Values for Inhibition of GBA2 in Cell Lysate\n(§2) Stable GBA2-expressing HEK293T cells were generated as follows. The PCR-amplified human GBA2 (GBA2 nucleotide accession number BC011363) using the following primers: Sense 5′---CGCAAATGGGCGGTAGGCGTG (SEQ ID NO:2)---3′ and antisense 5′---TAGTCAGCCATGGGGCGGAGA (SEQ ID NO:3)---3′) was cloned into pLenti-GIII-CMV by ABM Inc. The correctness of the construct was verified by sequencing. Lentivirus particles containing GBA2 in the pLenti-GIII-CMV plasmid were prepared using a third Generation Virus Packaging Mix (ABM cat #LV053-G074) in HEK293T cells and supplied as a virus particle suspension. The virus suspension was used for infection of HEK293T cells. Cell populations stably expressing human GBA2 were selected using puromycin for several weeks as determined by activity assays and western blot.\n(§3) Various concentrations of test compounds were prepared in DMSO and then diluted into buffer consisting of 100 mM citric acid, 200 mM disodium phosphate with 1% v/v C10E6, pH 5.5. Cellular homogenates (0.25 mg/mL) of the stable HEK293T-overexpressing GBA2 cell line were preincubated for 10 min on ice with an inhibitor of GCase (20 μM (6R,7R,8S)-8-ethyl-4-azaspiro[2.5]octane-6,7-diol). The reaction solution consisted of 20 μL of 750 μM 4-methylumbelliferone-β-D glucopyranoside in 5% DMSO in the same buffer, 20 μL of GBA2-cellular homogenate pre-treated with (6R,7R,8S)-8-ethyl-4-azaspiro[2.5]octane-6,7-diol and 20 μL of various concentrations of test compound in 10% DMSO in the same buffer. The final concentrations in the reaction were 0.083 mg/mL GBA2-cellular homogenate, 250 μM 4-methylumbelliferone-β-D glucopyranoside, and various concentrations of inhibitor. The inhibitor and GBA2-cellular homogenate were preincubated together for 5 min at 37° C. The reaction was initiated by addition of substrate and allowed to proceed for 20 min at 37° C. to assess GBA2 activity. Reactions were stopped by the addition of an equal volume (60 μL) of 0.5 M NaOH, 0.3 M glycine, pH 10.5. Fluorescence was measured on a Biotek Synergy H4 plate reader at wavelengths of 365 nm for excitation and 450 nm for emission. Incubations without added enzyme or added inhibitors were used to define no enzyme activity and maximal enzyme activity, respectively. IC50 values were determined by fitting the data to a log[inhibitor concentration] versus response curve using GraphPad Prism. IC50 values were calculated as the concentration of inhibitor required to inhibit GBA2 activity by 50%.", "units": {"IC50": "nM"}}
{"molecule": "C[C@@H]1[C@@H](O)[C@H](O)[C@@H](O)CN1CCc1ccccc1", "note": "[Example 35, (2R,3R,4R,5S)-2-methyl-1-phenethylpiperidine-3,4,5-triol]", "IC50": "100 to 1000"}
{"molecule": "Cc1ccccc1CCN1C[C@H](O)[C@@H](O)[C@H](O)[C@H]1C", "note": "[Example 36, (2R,3R,4R,5S)-2-methyl-1-(2-methylphenethyl)piperidine-3,4,5-triol]", "IC50": "100 to 1000"}
{"molecule": "COc1ccccc1CCN1C[C@H](O)[C@@H](O)[C@H](O)[C@H]1C", "note": "[Example 37, (2R,3R,4R,5S)-1-(2-methoxyphenethyl)-2-methylpiperidine-3,4,5-triol]", "IC50": "100 to 1000"}
{"molecule": "C[C@@H]1[C@@H](O)[C@H](O)[C@@H](O)CN1CCc1ccccc1F", "note": "[Example 38, (2R,3R,4R,5S)-1-(2-fluorophenethyl)-2-methylpiperidine-3,4,5-triol]", "IC50": "100 to 1000"}
{"molecule": "C[C@@H]1[C@@H](O)[C@H](O)[C@@H](O)CN1CCc1ccccc1Cl", "note": "[Example 39, (2R,3R,4R,5S)-1-(2-chlorophenethyl)-2-methylpiperidine-3,4,5-triol]", "IC50": "100 to 1000"}
{"molecule": "C[C@@H]1[C@@H](O)[C@H](O)[C@@H](O)CN1CCc1cccc(F)c1F", "note": "[Example 40, (2R,3R,4R,5S)-1-(2,3-difluorophenethyl)-2-methylpiperidine-3,4,5-triol]", "IC50": "100 to 1000"}
{"molecule": "C[C@@H]1[C@@H](O)[C@H](O)[C@@H](O)CN1CCc1ccc(F)cc1F", "note": "[Example 41, (2R,3R,4R,5S)-1-(2,4-difluorophenethyl)-2-methylpiperidine-3,4,5-triol]", "IC50": "100 to 1000"}
{"molecule": "C[C@@H]1[C@@H](O)[C@H](O)[C@@H](O)CN1CCc1cc(F)ccc1F", "note": "[Example 42, (2R,3R,4R,5S)-1-(2,5-difluorophenethyl)-2-methylpiperidine-3,4,5-triol]", "IC50": "< 100"}
{"molecule": "C[C@@H]1[C@@H](O)[C@H](O)[C@@H](O)CN1CCc1ccc(F)c(F)c1", "note": "[Example 43, (2R,3R,4R,5S)-1-(3,4-difluorophenethyl)-2-methylpiperidine-3,4,5-triol]", "IC50": "100 to 1000"}
{"molecule": "COc1ccc(CCN2C[C@H](O)[C@@H](O)[C@H](O)[C@H]2C)c(F)c1", "note": "[Example 44, (2R,3R,4R,5S)-1-(2-fluoro-4-methoxyphenethyl)-2-methylpiperidine-3,4,5-triol]", "IC50": "100 to 1000"}
{"molecule": "C[C@@H]1[C@@H](O)[C@H](O)[C@@H](O)CN1CCc1ccc(Cl)cc1F", "note": "[Example 46, (2R,3R,4R,5S)-1-(4-chloro-2-fluorophenethyl)-2-methylpiperidine-3,4,5-triol]", "IC50": "100 to 1000"}
{"molecule": "C[C@@H]1[C@@H](O)[C@H](O)[C@@H](O)CN1CCc1cc(Cl)ccc1F", "note": "[Example 47, (2R,3R,4R,5S)-1-(5-chloro-2-fluorophenethyl)-2-methylpiperidine-3,4,5-triol]", "IC50": "< 100"}
{"molecule": "C[C@@H]1[C@@H](O)[C@H](O)[C@@H](O)CN1CCc1c(F)cccc1F", "note": "[Example 48, (2R,3R,4R,5S)-1-(2,6-difluorophenethyl)-2-methylpiperidine-3,4,5-triol]", "IC50": "< 100"}
{"molecule": "C=C(C)c1cc(F)c(CCN2C[C@H](O)[C@@H](O)[C@H](O)[C@H]2C)c(F)c1", "note": "[Example 50, (2R,3R,4R,5S)-1-(2,6-difluoro-4-(prop-1-en-2-yl)phenethyl)-2-methylpiperidine-3,4,5-triol]", "IC50": "< 100"}
{"molecule": "C[C@@H]1[C@@H](O)[C@H](O)[C@@H](O)CN1CCc1ccc(OC2CCCOC2)cc1", "note": "(stereo partly drawn) [Example 62, (2R,3R,4R,5S)-2-methyl-1-(4-((tetrahydro-2H-pyran-3-yl)oxy)phenethyl)piperidine-3,4,5-triol]", "IC50": "< 100"}
{"molecule": "C[C@@H]1[C@@H](O)[C@H](O)[C@@H](O)CN1CCc1ccc(OC2CCOCC2)cc1", "note": "[Example 63, (2R,3R,4R,5S)-2-methyl-1-(4-((tetrahydro-2H-pyran-4-yl)oxy)phenethyl)piperidine-3,4,5-triol]", "IC50": "< 100"}
{"molecule": "C[C@@H]1[C@@H](O)[C@H](O)[C@@H](O)CN1CCc1ccc(OCC2CCOC2)cc1", "note": "(stereo partly drawn) [Example 65, (2R,3R,4R,5S)-2-methyl-1-(4-((tetrahydrofuran-3-yl)methoxy)phenethyl)piperidine-3,4,5-triol]", "IC50": "< 100"}
{"molecule": "C[C@@H]1[C@@H](O)[C@H](O)[C@@H](O)CN1CCc1ccc2c(c1)OC(F)(F)O2", "note": "[Example 72, (2R,3R,4R,5S)-1-(2-(2,2-difluorobenzo[d][1,3]dioxol-5-yl)ethyl)-2-methylpiperidine-3,4,5-triol]", "IC50": "< 100"}
{"molecule": "C[C@@H]1[C@@H](O)[C@H](O)[C@@H](O)CN1CCc1cccs1", "note": "[Example 74, (2R,3R,4R,5S)-2-methyl-1-(2-(thiophen-2-yl)ethyl)piperidine-3,4,5-triol]", "IC50": "100 to 1000"}
{"molecule": "C[C@@H]1[C@@H](O)[C@H](O)[C@@H](O)CN1CCc1ccsc1", "note": "[Example 75, (2R,3R,4R,5S)-2-methyl-1-(2-(thiophen-3-yl)ethyl)piperidine-3,4,5-triol]", "IC50": "100 to 1000"}
{"target": "T1, GBA2", "assay": "Determination of IC50 values for inhibition of GBA2 in cell lysate", "type": "biochemical", "set-up": "host or cells: HEK293T (lentiviral transduction, puromycin selection); used as cellular homogenate", "settings": "cellular homogenate of HEK293T cells overexpressing human GBA2, 250 μM 4-methylumbelliferone-β-D glucopyranoside, pH 5.5, 37° C., GCase inhibitor present; read-out: GBA2 IC50", "from_the_text": "as §1, §2, §3", "units": {"IC50": "nM"}}
{"molecule": "C[C@@H]1[C@@H](O)[C@H](O)[C@@H](O)CN1CCCC1CCCCC1", "note": "[Example 34, (2R,3R,4R,5S)-1-(3-cyclohexylpropyl)-2-methylpiperidine-3,4,5-triol]", "IC50": "< 100"}
{"molecule": "C[C@@H]1[C@@H](O)[C@H](O)[C@@H](O)CN1CCc1ccc(OC2CCOC2)cc1", "note": "(stereo partly drawn) [Example 61, (2R,3R,4R,5S)-2-methyl-1-(4-((tetrahydrofuran-3-yl)oxy)phenethyl)piperidine-3,4,5-triol]", "IC50": "< 100"}
{"molecule": "C[C@@H]1[C@@H](O)[C@H](O)[C@@H](O)CN1CCc1ccc(Oc2ccccc2)cc1", "note": "[Example 64, (2R,3R,4R,5S)-2-methyl-1-(4-phenoxyphenethyl)piperidine-3,4,5-triol]", "IC50": "< 100"}
{"molecule": "C[C@@H]1[C@@H](O)[C@H](O)[C@@H](O)CN1C[C@H](C)c1ccccc1", "note": "[Example 66, (2R,3R,4R,5S)-2-methyl-1-((R)-2-phenylpropyl)piperidine-3,4,5-triol]", "IC50": "100 to 1000"}
{"molecule": "C[C@H](CN1C[C@H](O)[C@@H](O)[C@H](O)[C@H]1C)c1ccccc1", "note": "[Example 67, (2R,3R,4R,5S)-2-methyl-1-((S)-2-phenylpropyl)piperidine-3,4,5-triol]", "IC50": "100 to 1000"}
{"molecule": "C[C@@H]1[C@@H](O)[C@H](O)[C@@H](O)CN1CCc1ccc(-c2ccccc2)cc1", "note": "[Example 68, (2R,3R,4R,5S)-1-(2-([1,1′-biphenyl]-4-yl)ethyl)-2-methylpiperidine-3,4,5-triol]", "IC50": "< 100"}
{"molecule": "C[C@@H]1[C@@H](O)[C@H](O)[C@@H](O)CN1CCc1c(F)cc(-c2ccccc2)cc1F", "note": "[Example 69, (2R,3R,4R,5S)-1-(2-(3,5-difluoro-[1,1′-biphenyl]-4-yl)ethyl)-2-methylpiperidine-3,4,5-triol]", "IC50": "< 100"}
{"molecule": "C[C@@H]1[C@@H](O)[C@H](O)[C@@H](O)CN1CCc1ccccn1", "note": "[Example 76, (2R,3R,4R,5S)-2-methyl-1-(2-(pyridin-2-yl)ethyl)piperidine-3,4,5-triol]", "IC50": "1000 to 25000"}
